What all share (assay type): physicochemical
Data set [1] in a line: Thermogravimetric analysis (TGA). To be noted: up to 150° C. The source says: TGA: Polymorphs according to the present disclosure may also give rise to thermal behavior different from that of the amorphous material or another polymorphic form. Thermal behavior may be measured in the laboratory by thermogravimetric analysis (TGA) which may be used to distinguish some polymorphic forms from others. In one aspect, the polymorphs as described herein may be characterized by thermogravimetric analysis.
The TGA trace of Crystalline Form I of (R)—N-(tert-butyl)-3-((4-chlorophenyl)(2-(trifluoromethyl)phenyl)methoxy)azetidine-1-carboxamide (compound 1) is reported in FIG. 3.
The TGA trace of Crystalline Form II of (R)—N-(tert-butyl)-3-((4-chlorophenyl)(2-(trifluoromethyl)phenyl)methoxy)azetidine-1-carboxamide (compound 1) is reported in FIG. 7.

Data set [2] in a line: Temperature dependent solubility in heptane (Crystal16, clear points). To be noted: for temperature at which the two solubility lines intersect / relative solubility: heptane; for temperature at which the two solubility lines intersect: Form I vs Form II. How it is done: Temperature dependent solubility experiment was performed on Crystalline Form I and Crystalline Form II of Compound 1, and data was generated by Crystal16 equipment using heptane as solvent. Slurries with accurate amounts of solid in heptane were prepared, equilibrated at 20° C. for 5 minutes then heated to 70° C. at a rate of 5° C./min, and the turbidity of the suspensions were measured. Clear points of the solutions were determined and solubility vs. temperature curves (Arrhenius plots: ln[conc.] vs. 1/T [° K]) were obtained, as shown in FIG. 9.

Data set [3] can be described thus: Dynamic vapor sorption (DVS). To be noted: for weight gain from dryness to 90% RH: second adsorption cycle. The source says: DVS: Polymorphs according to the present disclosure may also give rise to vapors sorption behavior different from that of the amorphous material or another polymorphic form. The vapor sorption behavior may be measured in the laboratory by dynamic vapor sorption (DVS) which may be used to distinguish some polymorphic forms from others. In one aspect, the polymorphs as described herein may be characterized by dynamic vapor sorption.
The DVS trace of Crystalline Form I of (R)—N-(tert-butyl)-3-((4-chlorophenyl)(2-(trifluoromethyl)phenyl)methoxy)azetidine-1-carboxamide (compound 1) is reported in FIG. 4.
The DVS trace of Crystalline Form I of (R)—N-(tert-butyl)-3-((4-chlorophenyl)(2-(trifluoromethyl)phenyl)methoxy)azetidine-1-carboxamide (compound 1) is reported in FIG. 8.

Data set [4] is described as follows: Stability at solid state (XRPD re-analysis after storage).
Data set [5] in a line: Competitive slurries of Crystalline Form I and Crystalline Form II. To be noted: for conversion of equimolar Form I / Form II slurry to this form: XRPD of solids. How it is done:
The relationship between Crystalline Form I and Crystalline Form II of Compound 1 was investigated via competitive slurries and solubility determination.
Equimolar amounts of the Crystalline Form I and Crystalline Form II were suspended in saturated solution of compound 1 and aged in different conditions. Slurry samples were taken at intervals, solids were filtered, dried and analyzed by XRPD. Two temperatures, 20° C. and 40° C., and two different solvent systems, heptane and a mixture of ethanol and water, were investigated.

Compound `CC(C)(C)NC(=O)N1CC(O[C@H](c2ccc(Cl)cc2)c2ccccc2C(F)(F)F)C1` [Crystalline Form I, (R)—N-(tert-butyl)-3-((4-chlorophenyl)(2-(trifluoromethyl)phenyl)methoxy)azetidine-1-carboxamide] returned a weight loss in data set [1] below 0.1%. In addition, the “temperature at which the two solubility lines intersect” value in data set [2] was “about 39 °C”. In data set [2] (temperature greater than 40° C.), the relative solubility result is “less than that of Crystalline Form II”. For the same compound, the relative stability result in data set [2] (temperatures greater than 40° C.) was “more stable”. Besides, in data set [3], the “weight gain from dryness to 90% RH” value was 0.4%. For the same compound, the “XRPD pattern after storage with respect to initial XRPD pattern” value in data set [4] (5 weeks of storage at laboratory conditions) was “did not show significant differences”. Moreover, in data set [5] (40° C.), the “conversion of equimolar Form I / Form II slurry to this form” value is given as “slow but complete conversion”.
`CC(C)(C)NC(=O)N1CC(O[C@H](c2ccc(Cl)cc2)c2ccccc2C(F)(F)F)C1` [Crystalline Form II, (R)—N-(tert-butyl)-3-((4-chlorophenyl)(2-(trifluoromethyl)phenyl)methoxy)azetidine-1-carboxamide]: the weight loss in data set [1] is recorded as below 0.1%. For the same compound, in data set [2], the “temperature at which the two solubility lines intersect” value is “about 39 °C”. In addition, the relative solubility result in data set [2] (temperature less than 39° C.) was “less than that of Crystalline Form I”. Also, in data set [2] (temperatures less than 39° C.), the relative stability entry is listed as “more stable”. In data set [3] (dryness to 90% RH), the hygroscopic behavior result is recorded as “non-hygroscopic behavior”. Besides, the “weight gain from dryness to 90% RH” value in data set [3] is on record as below 0.1%. In addition, in data set [4] (8 weeks of storage at laboratory conditions), the “XRPD pattern after storage with respect to initial XRPD pattern” value is on record as “did not show significant differences”. In data set [5] (20° C., heptane and ethanol/water), the “conversion of equimolar Form I / Form II slurry to this form” value is on record as “complete conversion”. Moreover, the relative polymorph stability result in data set [5] (room temperature (20-21° C.)) is given as “most stable polymorph form”.
